Source: patent US9617246B2, “Thioether-piperidinyl orexin receptor antagonists” (MERCK SHARP & DOHME CORP., priority 2013, dated 2017)

What was measured:
human orexin-2 receptor = human orexin-2 receptor (Homo sapiens (Human), UniProt O43614); experiment: FLIPR Ca2+ Flux Assay, orexin-2 receptor; assay type: cell-based; conditions: CHO cells, agonist 70 pM Ala-6,12 human orexin-A; read-out: hOX2R FLIPR IC50
Method: The utility of the compounds in accordance with the present invention as orexin receptor OX1R and/or OX2R antagonists may be readily determined without undue experimentation by methodology well known in the art, including the “FLIPR Ca^2+ Flux Assay” (Okumura et al., Biochem. Biophys. Res. Comm. 280:976-981, 2001). In a typical experiment the OX1 and OX2 receptor antagonistic activity of the compounds of the present invention was determined in accordance with the following experimental method. For intracellular calcium measurements, Chinese hamster ovary (CHO) cells expressing the rat orexin-1 receptor or the human orexin-2 receptor, are grown in Iscove's modified DMEM containing 2 mM L-glutamine, […], 1% hypoxanthine-thymidine supplement, 100 U/ml penicillin, 100 μg/ml streptomycin and 10% heat-inactivated fetal calf serum (FCS). The cells are seeded at 20,000 cells/well into Becton-Dickinson black 384-well clear bottom sterile plates coated with poly-D-lysine. All reagents were from GIBCO-Invitrogen Corp. The seeded plates are incubated overnight at 37° C. and 5% CO2. Ala-6,12 human orexin-A as the agonist is prepared as a 1 mM stock solution in 1% bovine serum albumin (BSA) and diluted in assay buffer (HBSS containing 20 mM HEPES, 0.1% BSA and 2.5 mM probenecid, pH7.4) for use in the assay at a final concentration of 70 pM. Test compounds are prepared as 10 mM stock solution in DMSO, then diluted in 384-well plates, first in DMSO, then assay buffer. On the day of the assay, cells are washed 3 times with 100 μl assay buffer and then incubated for 60 min (37° C., 5% CO2) in 60 μl assay buffer containing 1 μM Fluo-4AM ester, 0.02% pluronic acid, and 1% BSA. The dye loading solution is then aspirated and cells are washed 3 times with 100 μl assay buffer. 30 μl of that same buffer is left in each well. Within the Fluorescent Imaging Plate Reader (FLIPR, Molecular Devices), test compounds are added to the plate in a volume of 25 μl, incubated for 5 min and finally 25 μl of agonist is added. Fluorescence is measured for each well at 1 second intervals for 5 minutes and the height of each fluorescence peak is compared to the height of the fluorescence peak induced by 70 pM Ala-6,12 orexin-A with buffer in place of antagonist. For each antagonist, IC50 value (the concentration of compound needed to inhibit 50% of the agonist response) is determined. Alternatively, compound potency can be assessed by a radioligand binding assay (described in Bergman et. al. Bioorg. Med. Chem. Lett. 2008, 18, 1425-1430) in which the inhibition constant (Ki) is determined in membranes prepared from CHO cells expressing either the OX1 or OX2 receptor. The intrinsic orexin receptor antagonist activity of a compound which may be used in the present invention may be determined by these assays.

hOX1R = hOX1R (Homo sapiens, UniProt O43613); experiment: FLIPR Ca2+ Flux Assay, orexin-1 receptor; assay type: cell-based; conditions: CHO cells, agonist 70 pM Ala-6,12 human orexin-A

Sequence of human orexin-2 receptor (O43614 whole entry): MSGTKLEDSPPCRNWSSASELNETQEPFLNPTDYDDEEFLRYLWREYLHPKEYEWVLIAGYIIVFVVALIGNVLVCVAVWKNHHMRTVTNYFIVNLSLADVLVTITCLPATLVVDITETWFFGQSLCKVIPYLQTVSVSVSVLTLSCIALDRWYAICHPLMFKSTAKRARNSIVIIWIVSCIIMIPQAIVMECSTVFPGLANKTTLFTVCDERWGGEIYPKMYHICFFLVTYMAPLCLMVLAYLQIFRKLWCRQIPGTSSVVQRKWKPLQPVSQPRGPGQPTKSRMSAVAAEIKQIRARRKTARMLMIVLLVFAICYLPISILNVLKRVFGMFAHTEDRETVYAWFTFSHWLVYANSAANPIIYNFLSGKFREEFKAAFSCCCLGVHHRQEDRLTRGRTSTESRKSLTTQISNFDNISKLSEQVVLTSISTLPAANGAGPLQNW

SMILES | IC50 (human orexin-2 receptor) [nM] | IC50 (hOX1R) [nM]
C[C@@H]1CC[C@@H](Sc2cc(C#N)ccn2)CN1C(=O)c1ccccc1-c1cnn(C)c1 [Example 31, 2-{[(3R,6R)-6-methyl-1-{[2-(1-methyl-1H-pyrazol-4-yl)phenyl]carbonyl}piperidin-3-yl]sulfanyl}pyridine-4-carbonitrile] | 30.3 | 3190
C[C@@H]1CC[C@@H](Sc2cc(C#N)ccn2)CN1C(=O)c1cccnc1-c1ccccc1 [Example 32, 2-({(3R,6R)-6-methyl-1-[(2-phenylpyridin-3-yl)carbonyl]piperidin-3-yl}sulfanyl)pyridine-4-carbonitrile] | 71.9 | 10000
CC(C)Oc1ccccc1C(=O)N1C[C@H](Sc2cc(C#N)ccn2)CC[C@H]1C [Example 33, 2-{[(3R,6R)-6-methyl-1-{[2-(1-methylethoxy)phenyl]carbonyl}piperidin-3-yl]sulfanyl}pyridine-4-carbonitrile] | 29.4 | 6840
CSc1ccccc1C(=O)N1C[C@H](Sc2cc(C#N)ccn2)CC[C@H]1C [Example 34, 2-{[(3R,6R)-6-methyl-1-{[2-(methylsulfanyl)phenyl]carbonyl}piperidin-3-yl]sulfanyl}pyridine-4-carbonitrile] | 75.4 | 8720
C[C@@H]1CC[C@@H](Sc2cc(C#N)ccn2)CN1C(=O)c1ccccc1C1CCCCO1 (stereo partly drawn) [Example 38, 2-{[(3R,6R)-6-methyl-1-{[2-(tetrahydro-2H-pyran-2-yl)phenyl]carbonyl}piperidin-3-yl]sulfanyl}pyridine-4-carbonitrile] | 36.6 | 10000
C[C@@H]1CC[C@@H](Sc2cc(C#N)ccn2)CN1C(=O)c1ccccc1N1CCCC1 [Example 39, 2-({(3R,6R)-6-methyl-1-[(2-pyrrolidin-1-ylphenyl)carbonyl]piperidin-3-yl}sulfanyl)pyridine-4-carbonitrile] | 103 | 10000
C[C@@H]1CC[C@@H](Sc2cc(C#N)ccn2)CN1C(=O)c1ccsc1-c1ncccn1 [Example 40, 2-({(3R,6R)-6-Methyl-1-[(2-pyrimidin-2-ylthiophen-3-yl)carbonyl]piperidin-3-yl}sulfanyl)pyridine-4-carbonitrile] | 19 | 2240
C[C@@H]1CC[C@@H](Sc2cc(C#N)ccn2)CN1C(=O)c1ccccc1-c1ncccn1 [Example 41, 2-({(3R,6R)-6-methyl-1-[(2-pyrimidin-2-ylphenyl)carbonyl]piperidin-3-yl}sulfanyl)pyridine-4-carbonitrile] | 18.9 | 1580
C[C@@H]1CC[C@@H](Sc2cc(C#N)ccn2)CN1C(=O)c1sccc1-c1ncccn1 [Example 42, 2-({(3R,6R)-6-methyl-1-[(3-pyrimidin-2-ylthiophen-2-yl)carbonyl]piperidin-3-yl}sulfanyl)pyridine-4-carbonitrile] | 5.3 | 3560
COc1ccc(C(=O)N2C[C@H](Sc3cc(C#N)ccn3)CC[C@H]2C)c(-c2ncccn2)n1 [Example 43, 2-({(3R,6R)-1-[(6-methoxy-2-pyrimidin-2-ylpyridin-3-yl)carbonyl]-6-methylpiperidin-3-yl}sulfanyl)pyridine-4-carbonitrile] | 864 | 10000
C[C@@H]1CC[C@@H](Sc2cc(C#N)ccn2)CN1C(=O)c1ccsc1-n1nccn1 [Example 44, 2-{[(3R,6R)-6-Methyl-1-{[2-(2H-1,2,3-triazol-2-yl)thiophen-3-yl]carbonyl}piperidin-3-yl]sulfanyl}pyridine-4-carbonitrile] | 18.8 | 3920
C[C@@H]1CC[C@@H](Sc2ncccc2C(=O)O)CN1C(=O)c1ccccc1-n1nccn1 [Example 48, 2-{[(3R,6R)-6-Methyl-1-{[2-(2H-1,2,3-triazol-2-yl)phenyl]carbonyl}piperidin-3-yl]sulfanyl}pyridine-3-carboxylic acid] | 626 | 6540
COC(=O)c1c(OC)ccnc1S[C@@H]1CC[C@@H](C)N(C(=O)c2ccccc2-n2nccn2)C1 [Example 49, Methyl 4-methoxy-2-{[(3R,6R)-6-methyl-1-{[2-(2H-1,2,3-triazol-2-yl)phenyl]carbonyl}piperidin-3-yl]sulfanyl}pyridine-3-carboxylate] | 11.1 | 73.2
